Measured values: the supplement of paper PMC11451515

System: SEM cells
Experiment: cell viability relative to DMSO control; higher = less cytotoxic
Conditions: 48 h
Method in brief: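 Cells were incubated for 48 h at 37°C before CellTiter-Glo One luminescence was read. The cells were NOMO1 or SEM (500 cells/well) or P12-Ichikawa (1000 cells/well) leukemia cells, adapted for at least four passages in each medium and seeded in 1536-well plates (5 μl). Dosing used library compounds in DMSO applied by pin over 11 threefold points, 47 μM to 0.79 nM. Viability is the per-plate percentage of DMSO wells, with cell-free wells as background.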

[1] = HPLM + 10% dialyzed FBS, 0.000781 µM
[2] = HPLM + 10% dialyzed FBS, 0.00234 µM
[3] = HPLM + 10% dialyzed FBS, 0.00702 µM
[4] = HPLM + 10% dialyzed FBS, 0.0211 µM
[5] = HPLM + 10% dialyzed FBS, 0.0632 µM
[6] = HPLM + 10% dialyzed FBS, 0.19 µM
[7] = HPLM + 10% dialyzed FBS, 0.569 µM
[8] = HPLM + 10% dialyzed FBS, 1.71 µM
[9] = HPLM + 10% dialyzed FBS, 5.12 µM
[10] = HPLM + 10% dialyzed FBS, 15.4 µM
[11] = HPLM + 10% dialyzed FBS, 46.1 µM
[12] = RPMI 5 mM glucose + 10% FBS, 0.000781 µM
[13] = RPMI 5 mM glucose + 10% FBS, 0.00234 µM
[14] = RPMI 5 mM glucose + 10% FBS, 0.00702 µM
[15] = RPMI 5 mM glucose + 10% FBS, 0.0211 µM
[16] = RPMI 5 mM glucose + 10% FBS, 0.0632 µM
[17] = RPMI 5 mM glucose + 10% FBS, 0.19 µM
[18] = RPMI 5 mM glucose + 10% FBS, 0.569 µM
[19] = RPMI 5 mM glucose + 10% FBS, 1.71 µM
[20] = RPMI 5 mM glucose + 10% FBS, 5.12 µM
[21] = RPMI 5 mM glucose + 10% FBS, 15.4 µM
[22] = RPMI 5 mM glucose + 10% FBS, 46.1 µM
[23] = RPMI 5 mM glucose + 10% dialyzed FBS, 0.000781 µM
[24] = RPMI 5 mM glucose + 10% dialyzed FBS, 0.00234 µM
[25] = RPMI 5 mM glucose + 10% dialyzed FBS, 0.00702 µM
[26] = RPMI 5 mM glucose + 10% dialyzed FBS, 0.0211 µM
[27] = RPMI 5 mM glucose + 10% dialyzed FBS, 0.0632 µM
[28] = RPMI 5 mM glucose + 10% dialyzed FBS, 0.19 µM
[29] = RPMI 5 mM glucose + 10% dialyzed FBS, 0.569 µM
[30] = RPMI 5 mM glucose + 10% dialyzed FBS, 1.71 µM
[31] = RPMI 5 mM glucose + 10% dialyzed FBS, 5.12 µM
[32] = RPMI 5 mM glucose + 10% dialyzed FBS, 15.4 µM
[33] = RPMI 5 mM glucose + 10% dialyzed FBS, 46.1 µM

Compound | cell viability [1] | cell viability [2] | cell viability [3] | cell viability [4] | cell viability [5] | cell viability [6] | cell viability [7] | cell viability [8] | cell viability [9] | cell viability [10] | cell viability [11] | cell viability [12] | cell viability [13] | cell viability [14] | cell viability [15] | cell viability [16] | cell viability [17] | cell viability [18] | cell viability [19] | cell viability [20] | cell viability [21] | cell viability [22] | cell viability [23] | cell viability [24] | cell viability [25] | cell viability [26] | cell viability [27] | cell viability [28] | cell viability [29] | cell viability [30] | cell viability [31] | cell viability [32] | cell viability [33]
OC[C@H]1O[C@H](C[C@@H]1O)N2\C=C(\I)C(=O)NC2=O | 86.1% | 99.2% | 97.3% | 93% | 99% | 113% | 117% | 88.2% | 95.3% | 74.7% | 69.6% | 97.1% | 110% | 104% | 107% | 102% | 113% | 101% | 110% | 101% | 77.8% | 66.5% | 90.9% | 92.5% | 92% | 99.9% | 98.4% | 109% | 84.3% | 64.3% | 60% | 49.2% | 39.4%
N[C@@H](Cc1ccc(N(CCCl)CCCl)cc1)C(=O)O | 118% | 124% | 125% | 128% | 126% | 116% | 119% | 103% | 48.6% | 18.3% | 11.8% | – | – | – | – | – | – | – | – | – | – | – | 114% | 115% | 120% | 126% | 134% | 123% | 107% | 90.7% | 34.4% | 13.7% | 5.98%
Oc1ccc(C2CNCCc3c2cc(O)c(O)c3Cl)cc1 (stereo not given) | 98% | 103% | 90% | 91.2% | 91.5% | 104% | 90.8% | 48.5% | 102% | 89.5% | 108% | 83% | 95% | 97.2% | 96.6% | 84.6% | 97.5% | 90.8% | 47.5% | 103% | 91.4% | 94.6% | 81.9% | 93.1% | 86.6% | 96.6% | 76.9% | 112% | 100% | 70.2% | 114% | 101% | 102%
CN1C(=O)\C(=C/C2=C1N=C(NC3CCOCC3)N=C2)OC4=C(F)C=C(F)C=C4 | 99.6% | 97.4% | 98.4% | 102% | 99.1% | 90.3% | 93.3% | 92% | 78.9% | 92.7% | 45.6% | 112% | 100% | 125% | 112% | 105% | 112% | 121% | 105% | 97.1% | 115% | 45.6% | 93.3% | 106% | 94.8% | 68.2% | 93.8% | 96.9% | 95.9% | 92% | 96.2% | 88.3% | 42.9%
NC(=O)c1c(OCc2c(F)cc(Br)cc2F)nsc1NC(=O)NCCCCN1CCCC1 | 116% | 122% | 111% | 106% | 108% | 131% | 118% | 111% | 84.4% | 39.2% | 35.9% | 91.6% | 100% | 78.7% | 83.2% | 90.5% | 110% | 109% | 103% | 75.4% | 22.4% | 27.9% | 97% | 130% | 97.6% | 116% | 97% | 129% | 123% | 114% | 107% | 37.1% | 63.7%
COc1cc([S+](C)(=O)[O-])ccc1Nc1nc2ccc(-c3ccc(NC(=O)[C@H](C)c4ccc(F)cc4)cc3)cn2n1 | 90.4% | 87.8% | 102% | 89.2% | 107% | 102% | 94.8% | 41.9% | 52.1% | 52.3% | 43.1% | 98% | 117% | 92.3% | 86.1% | 124% | 108% | 104% | 41.2% | 41.4% | 34.6% | 31% | 88.4% | 112% | 108% | 90.4% | 136% | 99.1% | 98.1% | 53.9% | 50% | 48.2% | 43%
Cc1cc(-c2ccc(CC(=O)Nc3ccc(-c4cccnc4)cc3)cc2)ccn1 | 115% | 112% | 123% | 118% | 118% | 119% | 123% | 87.8% | 80.8% | 12.7% | 18.4% | 101% | 123% | 131% | 133% | 124% | 129% | 131% | 112% | 123% | 24.5% | 15.5% | 113% | 113% | 126% | 106% | 110% | 124% | 128% | 112% | 104% | 21.7% | 16%
CCC[S+](=O)([O-])Nc1ccc(F)c(C(=O)c2c[nH]c3ncc(-c4ccc(Cl)cc4)cc23)c1F | 115% | 123% | 122% | 115% | 119% | 124% | 134% | 123% | 131% | 115% | 104% | 105% | 126% | 120% | 99.5% | 127% | 126% | 128% | 121% | 128% | 119% | 107% | 113% | 98.5% | 113% | 121% | 125% | 120% | 128% | 113% | 134% | 122% | 109%
C[C@]12CCC(=O)C(O)=C1CC[C@@H]1[C@@H]2CC[C@]2(C)C(=O)CC[C@@H]12 | 98.8% | 113% | 110% | 114% | 120% | 117% | 113% | 121% | 108% | 101% | 104% | 98.2% | 128% | 123% | 106% | 122% | 116% | 127% | 111% | 103% | 114% | 112% | 119% | 120% | 120% | 130% | 107% | 112% | 121% | 123% | 107% | 116% | 111%
N[C@@H](Cc1cc(I)c(Oc2cc(I)c(O)c(I)c2)c(I)c1)C(=O)O | 102% | 121% | 107% | 113% | 78.2% | 129% | 119% | 120% | 117% | 93.8% | 92.2% | 98.2% | 105% | 103% | 106% | 59.2% | 112% | 115% | 104% | 94.2% | 88.3% | 84.6% | – | – | – | – | – | – | – | – | – | – | –
CC[C@@H](C)[C@H](NC(=O)[C@H](CC1CCCCC1)NC(=O)c1ccno1)C(=O)N1CCC2(CCc3ccccc32)CC1 | 41.9% | 88.3% | 78.3% | 86% | 65.4% | 86.3% | 83.7% | 87.1% | 93.1% | 82.6% | 70.3% | 49.4% | 102% | 103% | 89.2% | 67.5% | 71.5% | 88% | 73.7% | 79.3% | 73.8% | 81.3% | 55.4% | 111% | 99.2% | 105% | 83.6% | 99.1% | 82.1% | 99.1% | 95.6% | 93.9% | 91.9%
CCCCCCCN(CC)CCCC(O)c1ccc(NS(C)(=O)=O)cc1.CCCCCCCN(CC)CCCC(O)c1ccc(NS(C)(=O)=O)cc1.O=C(O)/C=C/C(=O)O (stereo not given) | 88.9% | 93.2% | 95.1% | 104% | 74.8% | 109% | 96.7% | 108% | 97.7% | 114% | 15% | 83.9% | 102% | 93.3% | 90.7% | 56.4% | 95.4% | 88.9% | 122% | 96.5% | 94% | 10.3% | 87.4% | 99.9% | 105% | 103% | 74.6% | 90.6% | 112% | 114% | 94.2% | 91.9% | 11.6%
C=C1C(=O)O[C@@H]2[C@H]3O[C@]3(C)CC/C=C(\C)CC[C@@H]12 | 96.1% | 99.9% | 122% | 104% | 116% | 115% | 98.5% | 40.5% | 4.45% | 3.12% | 4% | 81.4% | 84.9% | 103% | 93.9% | 87.6% | 73% | 69.5% | 19.9% | 2.98% | 1.9% | 2.67% | 104% | 97% | 102% | 114% | 106% | 105% | 95.9% | 42.4% | 3.46% | 1.79% | 3.03%
CCOC(=O)c1c(/C(C#N)=C\N)c2ccc(Cl)c(Cl)c2n1C | 85.8% | 86.1% | 85.2% | 96.9% | 76.5% | 94.1% | 95.5% | 81.7% | 92.6% | 83.4% | 57.4% | 86.7% | 99.2% | 89.9% | 94.1% | 84.6% | 89.7% | 97.8% | 94.4% | 89.6% | 84% | 62% | 80% | 97.7% | 81.8% | 87.8% | 71.6% | 89.3% | 102% | 84.4% | 94.8% | 75.2% | 76.9%
